Source: patent EP0140492B1 (WARNER-LAMBERT COMPANY, priority 1983, dated 1985)

Columns and labels:
[1] = cited from earlier work
[2] = Plasma levels of isoxicam and bioavailability parameters after a single oral dose to beagle dogs; type: in vivo; details: beagle, dog, in vivo, po; for Tmax: Tmax (hours)
Protocol: The range for the individual animals was 51.4 to 63.0 µg/ml with three animals having a peak time of two hours and the final animal at eight hours. These plasma levels were considerably higher when compared to micronized isoxicam. […] Peak plasma concentrations for individual animals ranged from […] between three and six hours postdose.
Areas under the plasma concentrations versus time curve (AUC^0-∞) were calculated using the trapezoidal rule and extrapolated to infinity with the appropriate elimination rate constants.

[3] = water and alcohol; cited from earlier work

## Cc1cc(NC(=O)C2=C(O)c3ccccc3S(=O)(=O)N2C)no1 [micronized isoxicam, 4 - hydroxy - 2 - methyl - N - (5 - methyl - 3 - isoxazolyl) - 2H - 1,2 - benzothiazine - 3 - carboxamide - 1,1 - dioxide, reference compound]
[1]
  pKa: about 3.65
[2]; 100 mg, AUC^0-∞
  AUC: 808 µg·h/mL
[2]; 100 mg, Cmax (µg/ml)
  Cmax: 15.4 µg/mL
[2]; 100 mg, Half-life (hours)
  half-life: 35.5 h
[2]; 100 mg, Mean Cmax
  Cmax: 15.4 ± 4.2 µg/mL
[2]; 100 mg, Mean half-lives (elimination, linear regression of semilogarithmic data)
  half-life: 35.5 ± 7.1 h
[2]; 100 mg
  Tmax: 4.2 h
[2]; 100 mg, mean AUC^0-∞
  AUC: 808 ± 230 µg·h/mL
[2]; Half-life (hours)
  half-life: 32.6 h
[2]
  Tmax: 6 h
[3]
  solubility: practically insoluble in water and alcohol
